According to patent publication US20040259906A1, “Methods for controlling the proliferation of cells” (priority 2003, published 2004):
Entries after “also recorded” stand apart in the source; their conditions may differ.

Experiments:
[1] = tested on: T-47D human breast ductal adenocarcinoma cells; experiment: Cell growth and cell number of breast cancer cells; assay type: cell-based; details: for cell growth arrest and cell death: summary statement, dose dependent
Method: (§1) In the following examples, all referenced cell lines were purchased from ATCC. T47D cells were maintained in Dulbecco's Modified Eagle medium (DMEM) (purchased from Life Technologies, Inc.) supplemented with 10% fetal calf serum (purchased from Life Technologies, Inc.), insulin (5 μg/ml), and antibiotics. CRL-5985, CRL-2632 and Raji cells were maintained in RPMI-1640 medium supplemented with 10% fetal calf serum (purchased from Life Technologies, Inc.) and antibiotics. Western blot analysis was performed by using phospho-serine 807/811-Rb, Rb, cyclin D1, cyclin D3, cdk-2, cdk-4, bcl-2, phospho-p38, bax, bak, PARP (cell signaling technology), MCL-1 (purchased from Biosource International) and beta-tubulin antibodies (purchased from Becton-Dickenson). Proteins were separated using an 8-10% SDS-polyacrylamide gel electrophoresis (SDS-PAGE), transferred to Immobilon-P membranes and immunoblotted with antibodies using the ECL detection system.
T-47D human breast ductal adenocarcinoma cells were treated with 12-oxo-PDA and measured at three and eight-day intervals.
(§2) Cell lines CRL-2632 (B-cell lymphoma cells), CRL-5985 (human lung adenocarcinoma cells) and T-47D (human breast ductal adenocarcinoma cells) were exposed to 12-OPDA over an eight-day period. Cell viability and cell growth were measured versus controls.
(§3) The effects on cell growth and number for T-47D human breast cancer cells and CRL-2632 human malignant diffuse large B-cell lymphoma cells following treatment with 12-oxo-PDA and jasmonic acid (“JA”) over a four-day period were measured.

[2] = tested on: CRL-5985 human lung adenocarcinoma cells; experiment: Cell growth, cell number and morphology of lung cancer cells; assay type: cell-based; details: for cell growth arrest and cell death: CRL-5985, summary statement, dose dependent
Method: as §1
CRL-5985 human lung adenocarcinoma cells were treated with 12-oxo-PDA and measured at three and eight-day intervals.
Lung cancer cells were treated with concentrations of 12-oxo-PDA ranging from 15 μM to 50 μM (versus an untreated control sample).
as §2

[3] = tested on: CRL-2632 human malignant diffuse large B-cell lymphoma cells; experiment: Cell growth, cell number and morphology of lymphoma cells; assay type: cell-based; details: for cell growth arrest and cell death: CRL-2632, summary statement, dose dependent
Method: as §1, §2, §3
(§4) CRL-2632 diffuse large B-cell lymphoma cells (and Burkitt's lymphoma cells (“Raji”)) were treated with 12-oxo-PDA and a synthetic coronatine analog (0.5 mM).

[4] = tested on: CRL-5985 (human lung adenocarcinoma cells); experiment: Cell viability, trypan blue exclusion assay; assay type: cell-based; details: CRL-5985, eight-day period, trypan blue (FIG. 5)
Method: as §1, §2

[5] = tested on: T-47D (human breast ductal adenocarcinoma cells); experiment: Cell viability, trypan blue exclusion assay; assay type: cell-based; details: eight-day period, trypan blue (FIG. 5)
Method: as §1, §2

[6] = tested on: CRL-2632 (B-cell lymphoma cells); experiment: Cell viability, trypan blue exclusion assay; assay type: cell-based, human; details: CRL-2632, eight-day period, trypan blue (FIG. 5)
Method: as §1, §2

cyclin D1 = experiment: Western blot, cyclin D1 expression in T-47D cells; assay type: cell-based, human; details: 20 μM, Western blot (FIG. 9)
Method: as §1
(§5) Hyperphosphorylation of Rb is a critical process and component for regulating the cell cycle. The phosphorylation of Rb enables cells to pass through particular cell cycle checkpoints and to enter the S phase of cell cycle. […] Similarly, expression of β-tubulin and phosphorylation of p38 MAPK were unaffected.

[7] = tested on: retinoblastoma tumor suppressor protein (Rb); experiment: Western blot, Rb phosphorylation in T-47D cells; assay type: cell-based, human; details: 20 μM
Method: as §1, §5

β-tubulin = experiment: Western blot, β-tubulin expression in T-47D cells; assay type: cell-based, human; details: 20 μM
Method: as §1, §5

p38 MAPK = experiment: Western blot, p38 MAPK phosphorylation in T-47D cells; assay type: cell-based, human; details: 20 μM
Method: as §1, §5

cyclin D1 mRNA = experiment: Real-time RT-PCR in T-47D cells, cyclin D1; assay type: cell-based, human; details: 25 uM, 48 hours, relative to untreated (ethanol) cells (FIG. 10)
Method: (§6) For real-time RT-PCR experiments T-47D cells were treated with ethanol (control) or with 25 uM 12-OPDA for 48 hours. Total RNA was isolated using TRIzol reagent (Invitrogen, Carlsbad, Calif.) followed by purification on RNeasy columns (Qiagen, Palo Alto, Calif.). For quantitative real-time RT-PCR analyses, total RNA from each sample was reverse transcribed with MuLV reverse transcriptase (Applied Biosystems, Foster City, Calif.) and random hexamer primers. The SYBR Green PCR Kit (Applied Biosystems) was used for quantitative real-time RT-PCR analysis. The primers for human ubuquitin, cyclin D1, p27 and c-fos were designed using Primer Express software (Applied Biosystems). 12-oxo-PDA was purchased from Larodon Fine Chemicals AB, Sweden. Jasmonic acid was purchased from Sigma-Aldrich Co. The indanoyl amino acid conjugate of coronatine (i.e., synthetic 6-azido-1-oxo-indanoyl isoleucine) was obtained from Dr. Wilhelm Boland (Max Planck Institute, Germany).
(§7) T-47D cells were exposed to 12-oxo-PDA in an effort to determine the effect of 12-oxo-PDA on gene expression. FIGS. 10, 11 and 12 show 12-OPDA mediated regulation of cyclin D1, p27 and c-fos mRNA levels, respectively, in T-47D cells compared to ethanol treatment alone. […] Thus, it appears that 12-oxo-PDA has a direct regulatory/inhibitory effect on the cyclin D1 and Rb protein. […]

p27 mRNA = experiment: Real-time RT-PCR in T-47D cells, p27; assay type: cell-based, human; details: 25 uM, 48 hours, vs ethanol (FIG. 11)
Method: as §6, §7

C-FOS mRNA = experiment: Real-time RT-PCR in T-47D cells, c-fos; assay type: cell-based, human; details: 25 uM, 48 hours, vs ethanol (FIG. 12)
Method: as §6, §7

[8] = tested on: CRL-2632 diffuse large B-cell lymphoma cells; experiment: Apoptosis / PARP cleavage immunoblot in CRL-2632 cells; assay type: cell-based, human; details: for growth arrest and apoptosis: CRL-2632, synthetic coronatine analog 0.5 mM (FIG. 15)
Method: as §1
Regulated cell apoptosis is essential for the development and maintenance of the immune system. The highly regulated anti-apoptotic MCL-1 protein appears to enhance short-term survival and functions in genotoxic cell death. […] Thus, deletion of MCL-1 during early lymphocyte differentiation increases apoptosis and arrests the development of B and T-lymphocytes. In this regard, one hallmark of apoptosis is activation of the caspases (e.g., caspase-3, caspase-6, and caspase-7). Activation of caspases leads to the cleavage of a […] PARP protein into an 89-kDa fragment.
Cells were incubated in the presence of 12-oxo-PDA (20 μM) for between one and six hours. The cells were then washed and lysed to extract total proteins. Thereafter, 30 μg extracts were resolved on 8% SDS-PAGE gel and probed with anti-PARP, anti-MCL-1, anti-bcl-2, anti-bax and anti-bak antibodies. […] Similarly, FIG. 13 illustrates the effects of 12-oxo-PDA treatment on apoptosis related proteins (i.e., Bcl-2, MCL-1, Bax and Bak proteins). […]

MCL-1 protein = experiment: Immunoblot, MCL-1 expression in CRL-2632 cells; assay type: cell-based, human; details: for expression of MCL-1 protein: CRL-2632, synthetic coronatine analog 0.5 mM (FIG. 15)
Method: as §1
(§8) Cells were incubated in the presence of 12-oxo-PDA (20 μM) for between one and six hours. The cells were then washed and lysed to extract total proteins. Thereafter, 30 μg extracts were resolved on 8% SDS-PAGE gel and probed with anti-PARP, anti-MCL-1, anti-bcl-2, anti-bax and anti-bak antibodies. […] Similarly, FIG. 13 illustrates the effects of 12-oxo-PDA treatment on apoptosis related proteins (i.e., Bcl-2, MCL-1, Bax and Bak proteins).
as §4

Bcl-2 = experiment: Immunoblot, Bcl-2 expression in CRL-2632 cells; assay type: cell-based, human; details: CRL-2632, 20 μM, one to six hours (FIG. 13)
Method: as §1, §8

Bax = experiment: Immunoblot, Bax expression in CRL-2632 cells; assay type: cell-based, human; details: CRL-2632, 20 μM, one to six hours (FIG. 13)
Method: as §1, §8

Bak = experiment: Immunoblot, Bak expression in CRL-2632 cells; assay type: cell-based, human; details: CRL-2632, 20 μM, one to six hours (FIG. 13)
Method: as §1, §8

[9] = tested on: Burkitt's lymphoma cells (Raji); experiment: Growth arrest and apoptosis in Raji cells; assay type: cell-based; details: synthetic coronatine analog 0.5 mM (FIG. 15)
Method: as §1, §4

MCL-1 = MCL-1 expression in Raji cells; assay type: cell-based; details: synthetic coronatine analog 0.5 mM (FIG. 15)
Method: as §1, §4

tubulin = experiment: Tubulin polymerization in CRL-2632 cells (soluble/insoluble fractions, Western blot); assay type: cell-based, human; details: CRL-2632, 20 μM, one to six hours (FIG. 16)
Method: as §1
The increase in insoluble tubulin fractions indicates polymerization of tubulin in treated cells.

cancer cells = experiment: Observations on treated cancer cells (Oil Red O staining, removal from culture medium); assay type: cell-based
Description: Rather, it appears that 12-oxo-PDA (and the related compounds) irreversibly interferes with the cellular mechanisms involved in cell growth, differentiation and the interaction between the cells with the extracellular matrix.

plants = details: background statement; cited from earlier work
[10] = CRL-2632, four-day period (FIG. 8)

CC/C=C\C[C@@H]1C(=O)C=C[C@@H]1CCCCCCCC(=O)O [Formula 12-oxo-PDA, 12-oxo-phytodienoic acid]
decrease in cell number ([1]; eight-day period, vs untreated samples (FIG. 6)): three-fold | total cell number over treatment period ([1]; four-day period (FIG. 7)): decrease in total cell count | cell growth arrest and cell death [1]: arrests cell growth and induces cell death | cell growth and accumulation ([1]; three and eight-day intervals, vs untreated control (FIG. 1)): significant decrease in cell growth and accumulation | decrease in cell number ([2]; CRL-5985, eight-day period, vs untreated samples (FIG. 6)): five-fold | cell growth arrest and cell death [2]: arrests cell growth and induces cell death | morphological changes ([2]; CRL-5985, three and eight-day intervals (FIG. 2)): ceased three-dimensional growth patterns and became more diffuse and single layered | cell growth ([2]; CRL-5985, three and eight-day intervals, vs control (FIG. 2)): significant decrease in cell growth | cell growth, concentration dependence ([2]; lung cancer cells, 15 μM to 50 μM, eight days (FIG. 3)): decrease in cell growth proportional to the concentration | decrease in total cell number ([3]; CRL-2632, eight-day period, vs untreated samples (FIG. 6)): ten-fold | total cell number over treatment period [3, 10]: decrease in total cell count | cell growth arrest and cell death [3]: arrests cell growth and induces cell death | morphological changes ([3]; CRL-2632, two and eight-day intervals (FIG. 4)): morphological changes | cell viability [4]: significant inhibitory effect | cell viability [5]: significant inhibitory effect | cell viability [6]: particularly effective | cyclin D1 expression (cyclin D1): inhibition of cyclin D1 expression | total Rb ([7]; Western blot): remained unchanged | Rb phosphorylation at the 807 and 811 serine residues ([7]; phospho-specific Rb antibody (FIG. 9)): inhibition of the hyperphosphorylation; also recorded: dramatically inhibited | expression of β-tubulin (β-tubulin): unaffected | phosphorylation of p38 MAPK (p38 MAPK): unaffected | decrease in cyclin D1 mRNA levels (cyclin D1 mRNA): greater than twenty-fold | p27 mRNA levels (p27 mRNA): no significant changes | C-FOS mRNA levels (C-FOS mRNA): no significant changes | cleavage of PARP ([8]; CRL-2632, 20 μM, one to six hours, immunoblot): time-dependent cleavage of PARP | growth arrest and apoptosis [8]: arrest growth and induce apoptosis | expression of MCL-1 (MCL-1 protein; CRL-2632, 20 μM, one to six hours (FIG. 13)): inhibited the expression of MCL-1 | expression of MCL-1 protein (MCL-1 protein): down-regulated expression of MCL-1 | expression of Bcl-2 (Bcl-2): no effect | expression of Bax (Bax): no effect | expression of Bak (Bak): no effect | growth arrest and apoptosis [9]: arrest growth and induce apoptosis | expression of MCL-1 (MCL-1): down-regulated expression of MCL-1 | tubulin polymerization (soluble vs insoluble tubulin fractions) (tubulin): induces tubulin polymerization | lipid accumulation in the cytoplasm (cancer cells; Oil Red O staining): resulted in lipid accumulation in the cytoplasm | cell growth after removal of compound from culture medium (cancer cells; washout): did not restore cell growth

CC[C@H](C)[C@H](NC(=O)c1cc(N=[N+]=[N-])cc2c1CCC2=O)C(=O)OC [synthetic coronatine]
growth of CRL-2632 cells (growth ratio over ethanol control) ([3]; CRL-2632 (FIG. 14)): inhibit growth | growth arrest and apoptosis [8]: arrest growth and induce apoptosis | expression of MCL-1 protein (MCL-1 protein): down regulate the expression of the MCL-1 protein | growth arrest and apoptosis [9]: arrest growth and induce apoptosis | expression of MCL-1 (MCL-1): down-regulated expression of MCL-1 | activation of plant stress signaling (volatile emission, tendril coiling) (plants): can induce volatile emissions and/or tendril coiling

CC[C@H]1C=C(C(=O)N[C@@]2(C(=O)O)C[C@@H]2CC)[C@H]2CCC(=O)[C@H]2C1 (stereo in doubt) [Coronatine]
activation of plant stress signaling (volatile emission, tendril coiling) (plants): can activate the stress signaling processes in plants

CC/C=C\C[C@H]1C(=O)CC[C@@H]1CC(=O)O [jasmonic acid, Jasmonic acid, reference compound]
growth inhibition relative to untreated control ([1]; four-day period (FIG. 7)): some growth inhibition | total cell number over treatment period ([1]; four-day period (FIG. 7)): net increase in total tumor cell number | cell growth arrest and cell death [1]: fails to be as effective | cell growth arrest and cell death [2]: fails to be as effective | growth inhibition relative to untreated control [3, 10]: some growth inhibition | total cell number over treatment period [3, 10]: net increase in total tumor cell number | cell growth arrest and cell death [3]: fails to be as effective
